In this experiment the test system is TNF-α release from LPS stimulated PEC cells. In words: TNF-α release from LPS stimulated PEC macrophages (ELISA). It counts as cell-based, murine. The settings on record: Mus musculus, Macrophage. Here is the method: Murine peritoneal exudate cell macrophages (PEC) were isolated by perfusion of mouse peritoneum and plated into 96-well trays at 5×10^5 cells per well. […] At various times thereafter, supernatants were removed and levels of either TNF-α or IL-1α were assayed using commercial 96-well microtiter immunoassay kits (Genzyme; TNF; Endogen, Boston, Mass.; IL-1α) according to manufacturer's specifications. […] 4000 cells were plated into each well of a 96-well microtiter plate and allowed to incubate for 72 hrs at 37° C. […] Either the HUVEC or U937 cells were stimulated with either LPS, IL-1α or TNF-α for 12 hrs. For the adhesion assay, U937 cells were labeled with the fluorescent viability stain, 2',7'-bis-(2-carboxyethyl)-5-(and-6)-carboxyfluorescein acetoxymethyl ester (BCECF). […] The cells were washed once with full media and 50,000 cells/well added to the HUVEC cultures. The samples were incubated at 37° C. for 30 min, inverted and centrifuged for 10 min at 400× g. After addition of […] Hanks Balanced Salt Solution (HBSS), the microtiter plate was then analyzed on a Millipore Cytofluor fluorescent plate reader (excitation 488 nm; emission 525 nm).
Cells were pretreated with […] CT1501R and supernatants assayed by ELISA for released TNF-α as a function of time following LPS stimulation. […]
For orientation: In an ELISA, binding on a coated surface is turned into a signal by an enzyme label.

SMILES strings stand for the structures. pIC50: −log10 of the molar value.

Consider `C[C@@H](O)CCCCn1c(=O)c2c(ncn2C)n(C)c1=O` [CT1501R, (R)-1-(5-hydroxyhexyl)-3,7-dimethylxanthine], for which the pIC50 (LPS stimulated PEC, drug 1 hour before LPS, FIG. 18, read-out: concentration for 50% inhibition of TNF-α release (IC50)) is approximately 4.52. The inhibition at 500 µM (at 500 μM, read-out: inhibitory effects, % of the maximal LPS stimulation (1428 pg/ml)) was approximately 40%.

The record behind these values is patent US5567704A, “R-enatiomerically pure hydroxylated xanthine compounds to treat baldness” (priority 1995, dated 1996).
